Test results: PubChem BioAssay AID179 (DTP/NCI, 2004)
Several values for one entry are separate records, joined by “and”; a condition that tells them apart may be missing. Identical values can stand only once. Activity calls are given as the source filed them.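 Rule for the calls: active = compounds giving half or more protection of infected cells from virus-caused growth loss, again on retest; inactive = the rest.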 Where a SMILES comes first, the peptide text is derived from it.

Tested on: CEM cells HIV-1 protection, formazan growth assay
Assay: NCI AIDS Antiviral Assay
Conditions: for IC50: measured here: growth of uninfected CEM cells
Outline: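 Human CEM cells, uninfected and HIV-1-infected, received five drug concentrations, and growth was read by soluble formazan assay. Compounds giving at least 50% protection were retested; reproducible 100% protection defined confirmed active.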

O=c1[nH]c2nc3ccccc3c(=O)n2/c1=C/c1ccc(O)cc1
EC50: > 200 µM
IC50: 52.5 µM

CC(=O)NC1=CC(=O)C=C(Cl)C1=O
EC50: > 200 µM
IC50: 32.4 µM

N#CC(O)CCOCc1ccccc1 (stereo unspecified)
EC50: > 200 µM
IC50: 53.7 µM

CCN1C[C@]2(COC)CCC(O)C34[C@@H]5C[C@@H]6C(OC(C)=O)[C@@H]5[C@](OC(C)=O)(C[C@@H]6OC)[C@@H](C(OC)[C@@H]32)[C@H]14 (stereo partly specified)
outcome: inactive

O=S(=O)(O)c1ccc(Sc2ccc(S(=O)(=O)O)cc2)cc1
EC50: > 631 µM
IC50: > 631 µM

O=C1c2ccccc2-c2nc3ncccc3cc21
EC50: > 200 µM
IC50: 33.9 µM

O=C1/C(=C/c2ccc(Cl)cc2)Oc2cc(O)ccc21
EC50: > 200 µM
IC50: 37.2 µM

Cc1nc2ccc(NC3OCC(O)C(O)C3O)cc2c(=O)n1-c1ccccc1 (stereo unspecified)
EC50: > 200 µM
IC50: 115 µM

CCO/C(O)=c1/s/c(=C(\C#N)c2nc3ccccc3[nH]2)n(-c2ccccc2)c1=N
EC50: > 17.8 µM
IC50: 15.1 µM

OC(c1ccco1)C(F)(F)c1nc2ccccc2o1 (stereo unspecified)
EC50: > 200 µM
IC50: > 200 µM

CC1(O)C(O)C(O)C1(O)CO (stereo unspecified) (tested in a mixture with another compound)
EC50: > 200 µM
IC50: > 200 µM

CCOC(=O)CO/N=C\C1=CC(=O)C2CC1C2(C)C (stereo unspecified)
EC50: > 200 µM
IC50: > 200 µM

O=C1CCCC(O)=C1SC1=C(O)CCCC1=O
outcome: inactive

N.N.NCCCCCN.O=C([O-])CC(=O)[O-].O=C([O-])CC(=O)[O-].[Pt+4].[Pt+4]
EC50: > 2140 µM
IC50: 6.76 µM

S=C1N=C(Cl)/C(=C\c2ccccc2)N1
EC50: > 200 µM
IC50: > 200 µM

O=[N+]([O-])c1ccc([N+](=O)[O-])c(Cl)c1
EC50: > 200 µM
IC50: 3.16 µM

COc1ccccc1NC(=S)N/N=C(/C)c1ccccn1
EC50: > 0.2 µM
IC50: 0.0339 µM

O=C(COc1ccc(OCC(=O)N2C(=O)CN(c3ccc(Cl)cc3)C2=S)cc1)N1C(=O)CN(c2ccc(Cl)cc2)C1=S
EC50: > 200 µM
IC50: 43.7 µM

O=C(Nc1ccccc1Cl)c1cc2cc(N=Nc3ccc(Br)cc3)ccc2oc1=O
outcome: inactive

CCC(C)C(NC(=O)C(N)CCC(=O)O)C(=O)NC(CCCCN)C(=O)NCC(=O)NC(C(=O)NC(C(=O)NC(CC(=O)O)C(=O)NC(CC(C)C)C(=O)NCC(=O)NC(CCCCN)C(=O)O)C(C)O)C(C)O (stereo unspecified) (H-EIKGTTDLGK-OH; configuration not given here)
outcome: inactive

O=C(/C=C/c1c(O)ccc2ccccc12)c1ccccc1Cl
EC50: > 56.2 µM
IC50: 28.2 µM

N#CC(C#N)=CN1CCOCC1
EC50: > 200 µM
IC50: > 200 µM

COC(=O)[C@]1(C)CCC[C@]2(C)C3CC4OOC3(C=C4C(C)(C)O)CCC21 (stereo partly specified)
EC50: > 251 µM
IC50: 38.9 µM

O=C(c1cccs1)N(C(=S)N1CCN(c2ccccn2)CC1)C1CCCCC1
EC50: > 12.6 µM
IC50: 12.3 µM

CN(C)c1ccccc1CC(c1c[nH]c2ccccc12)c1c[nH]c2ccccc12
EC50: > 19.1 µM
IC50: > 19.1 µM

CC(Nc1cc(=O)n(C)c(=O)[nH]1)c1ccccc1 (stereo unspecified)
EC50: 55 µM
IC50: > 200 µM

CN1C2CC(C#N)C1C=CC2=O (stereo unspecified)
EC50: > 200 µM
IC50: 32.4 µM and 107 µM

O=S(OC12CC3CC(CC(C3)C1)C2)c1cc(Cl)cc(Cl)c1OCc1ccccc1 (stereo unspecified)
outcome: inactive

Cc1ccc(-c2nnc(CCCCCCCCc3nnc(-c4ccc(C)cc4O)n3N)n2N)c(O)c1
EC50: > 200 µM
IC50: 120 µM

Cn1c(=O)c2nc(-c3ccc(Cl)cc3)oc2n(C)c1=O
EC50: > 9.33 µM
IC50: > 9.33 µM

C[C@]1(O)CC(=O)c2c(c(-c3ccc4cc5c(c(O)c4c3O)C(=O)C[C@@](C)(O)C5)c3cccc(O)c3c2O)C1
EC50: > 200 µM
IC50: 1.32 µM

Cc1ccc(S(=O)(=O)NC(C)C(=O)O)cc1 (stereo unspecified)
outcome: inactive

COCCOCN(C(=O)C1=CCC2(CC1)OCCO2)c1ccccc1I
EC50: > 200 µM
IC50: > 200 µM

c1ccc2nocc2c1
EC50: > 2090 µM
IC50: 1100 µM

O=C1C(Cl)C(c2cccc([N+](=O)[O-])c2)N1n1cnc2ccccc2c1=O (stereo unspecified)
EC50: > 10 µM
IC50: > 10 µM

CS(=O)(=O)OCCN1CCN(C(=O)c2cccc3c(Nc4ccc(S(N)(=O)=O)cc4)c4ccccc4nc23)CC1
EC50: > 51.3 µM
IC50: > 51.3 µM

O=c1ccn(/C=C(\c2ccccc2)S(=O)Cc2ccccc2)c(=S)[nH]1 (stereo unspecified)
outcome: inactive

Cc1ccc2c(CC(=O)O)cc(=O)oc2c1
EC50: > 229 µM
IC50: 38.9 µM

CN(C)CCNc1ccc(NCCN(C)C)c2c1C(=O)c1ncsc1C2=O
EC50: > 100 µM
IC50: 0.724 µM

COC1(OC)C(N(C)C)=C(Cl)C(=O)/C1=C/C=O
EC50: > 251 µM
IC50: 72.4 µM

N#Cc1c(Nc2nc3ccccc3s2)c2ccccc2n2c1nc1ccccc12
EC50: > 200 µM
IC50: > 200 µM

O=C1C(=C(C(F)(F)Cl)C(F)(F)Cl)C2CCC1C2 (stereo unspecified)
outcome: inactive

CC1OC(OCC2OC(Oc3c(-c4ccc(O)c(O)c4)oc4cc(O)cc(O)c4c3=O)C(O)C(O)C2O)C(O)C(O)C1O (stereo unspecified)
EC50: > 200 µM
outcome: inactive
IC50: 1.02 µM

Cc1cc(C)n(C(C)(C(=O)Cc2ccccc2)n2nc(C)cc2C)n1
EC50: > 200 µM
IC50: > 200 µM

CC(=O)[C@H]1[C@H](O)C[C@@]2(C)[C@@H]3CCc4cc(O)c(OC5OC(CO)C(O)C(O)C5O)cc4C3(C)C(=O)C[C@]12C (stereo partly specified)
EC50: > 200 µM
IC50: > 200 µM

COC(=O)C(Cc1ccccc1)OC(=O)C(N)CC(=O)O (stereo unspecified)
EC50: > 200 µM
IC50: > 200 µM

C=CCn1c(-c2cc(C(C)(C)C)c(O)c(C(C)(C)C)c2)cs/c1=N\C(P(=O)(O)O)P(=O)(O)O
EC50: > 200 µM
IC50: 21.4 µM

CSC1=N/C(=C\c2ccccc2)C(=O)N1CN1CCOCC1
EC50: > 200 µM
IC50: 87.1 µM

C=[N+]([O-])CC[C@@]1(O)C[C@H](n2ccc(=O)[nH]c2=O)O[C@@H]1CO[Si](C)(C)C(C)(C)C
EC50: > 200 µM
IC50: 44.7 µM

CONC(CC(=O)c1ccccc1)c1ccccc1 (stereo unspecified)
EC50: > 4.07 µM
IC50: > 4.07 µM

CN1CCc2sccc2C(c2ccccc2)O1 (stereo unspecified)
EC50: > 708 µM
IC50: 275 µM

NC(N)=NS(=O)(=O)c1ccc(NC(=O)c2ccc(Cl)c3c(Nc4ccc(S(=O)(=O)N=C(N)N)cc4)c4ccccc4nc23)cc1
EC50: > 28.2 µM
IC50: > 28.2 µM

Cc1c2ccccc2nc(CS(=O)(=O)CCO)[n+]1[O-]
EC50: > 200 µM
IC50: > 200 µM

O=C1NC(N/N=C\c2ccccc2)=N/C1=C/c1ccccc1
EC50: > 200 µM
IC50: 35.5 µM

COc1ccc(NC(=O)CSc2nnc(-c3ccc(NC(C)=O)cc3)o2)cc1
EC50: > 33.9 µM
IC50: 19.1 µM

Cc1c([N+](=O)[O-])oc2c1C(=O)NCCC2
EC50: > 437 µM
IC50: 70.8 µM

CN(C)C1C(=O)C(C(=O)NCNC2C(=O)N3C2SC(C)(C)C3C(=O)O)=C(O)C2(O)C(=O)C3=C(O)c4c(O)cccc4C(C)(O)C3CC12 (stereo unspecified)
EC50: > 269 µM
IC50: 251 µM

C=C(Br)CNC(=O)Nc1ccc(Cl)c(Cl)c1
EC50: > 200 µM
IC50: 21.9 µM

OC(CC(O)(C(F)(F)F)C(F)(F)F)c1cccs1 (stereo unspecified)
EC50: > 200 µM
IC50: 93.3 µM

Cc1ccc(SCC(OCn2cnc3c(Cl)nc(N)nc32)[C@H](C)F)cc1 (stereo partly specified)
EC50: > 200 µM
IC50: 24 µM

COn1oc(=O)c2ccccc21
EC50: > 200 µM
IC50: > 200 µM

CC(=O)c1c2c(cc3c1CC1(Cc4cc5c(cc4C1)C(=O)CCC5)C3)CCCC2 (stereo unspecified)
EC50: > 200 µM
IC50: 3.63 µM

CNC(=O)C(C)C1C(=O)/C(=C(O)/C=C\C(C)=C\C(C)C2OC3(C)OC(C=CC34CO4)C2C)C(=O)N1C1CCC(O)C(C)O1 (stereo unspecified)
EC50: > 31.6 µM
IC50: > 31.6 µM

N#COc1ccc(Oc2ccccc2)cc1
EC50: > 24.5 µM
IC50: > 24.5 µM

Cc1cc(Nc2ccc(S(=O)(=O)O)c3cc(S(=O)(=O)O)cc(S(=O)(=O)O)c23)c2ccccc2n1
EC50: > 200 µM
IC50: > 200 µM

CC(c1cccc2ccccc12)/[N+]([O-])=C/c1ccccc1 (stereo unspecified)
EC50: > 182 µM
IC50: 162 µM

COc1ccc2c(c1)OCC1Cc3cc4c(cc3OC21)OCO4 (stereo unspecified)
outcome: inactive

CC(C)[C@H]1CO[C@]2(C)[C@@H]3CN(Cc4ccccc4)C[C@@H]3C(=O)N12
EC50: > 214 µM
IC50: > 214 µM

COC1CC(CC(C)O)CN(C#N)CCc2c1[nH]c1ccccc21 (stereo unspecified)
EC50: > 79.4 µM
IC50: > 79.4 µM

CN(C)/C=C/c1c2c(nc3ccccc13)C(=O)c1cccnc1C2=O
outcome: inactive

COC(C/C(=C/CO[Si](C(C)C)(C(C)C)C(C)C)C(=O)N(COCC[Si](C)(C)C)c1ccccc1I)OC
EC50: > 200 µM
IC50: 32.4 µM

O=C(O)/C=C/SCCC(=O)O
EC50: > 1410 µM
IC50: > 1410 µM

Cn1c(=O)c(N=Nc2c(=O)n(C)c(=O)n3c2[nH]c2ccccc23)c2[nH]c3ccccc3n2c1=O
EC50: > 33.9 µM
IC50: > 33.9 µM

COC(=O)/C=C1/C2CC3CC(C2)C(O)C1C3 (stereo unspecified)
outcome: inactive

Cc1cnc([C@H]2CCC3[C@@H]4CC=C5C[C@@H](OC(=O)CCC(=O)O)CC[C@]5(C)C4CC[C@@]32C)s1 (stereo partly specified)
EC50: > 52.5 µM
IC50: 50.1 µM

COC(=O)CC1C(C)(C)C(=O)C2CC3=C4CC(=O)OC(c5ccoc5)C4(C)CCC3C1(C)C2=O (stereo unspecified)
EC50: > 55 µM
IC50: > 55 µM

COc1ccc(C(=O)O)c(Cc2ccc3ccccc3c2)c1
outcome: inactive

CC1=CCC(=O)[C@]2(C)C(CC(=O)O)[C@]3(C)C4=C(C)C(c5ccoc5)C[C@@H]4O[C@@H]3[C@H](O)[C@@H]12 (stereo partly specified)
EC50: > 550 µM
IC50: > 550 µM

CC(C)C1CC[C@@H](C)C[C@@]1(O)CC(N)=O (stereo partly specified)
outcome: inactive

OCCNCCNc1c2ccccc2nc2cc(Cl)ccc12
outcome: inactive

CCCCn1c(C)c(C)c2c1NN=C(C#N)S2(=O)=O
EC50: > 200 µM
IC50: > 200 µM

O=C(Nc1ccc(Cl)c(Cl)c1)n1ncc2ccc([N+](=O)[O-])cc21
EC50: > 200 µM
IC50: 170 µM

O=C(NNC(=S)Nc1ccc(Cl)cc1)c1cc(-c2ccccc2)nc2ccccc12
EC50: > 200 µM
IC50: 8.51 µM

CN(CN(C)/N=C/c1ccc(Cl)cc1)/N=C/c1ccc(Cl)cc1
outcome: inactive

O=C1CC2COc3ccc(O)cc3C2=NN1c1ccccc1 (stereo unspecified)
EC50: > 324 µM
IC50: 110 µM
